Experimental data reported in article PMC9515629, “Cystargolide-based amide and ester Pz analogues as proteasome inhibitors and anti-cancer agents” (Royal Society Open Science, 2022).
Like-named read-outs stand apart in the source and are kept apart here.

Experiments:
[1] = biological target: T1, β5 subunit of human proteasomes (hβ5) (Homo sapiens, UniProt P28074); test: Proteasome chymotrypsin-like (β5) activity in crude Jurkat cell lysate, Suc-LLVY-AMC substrate; assay type: biochemical; settings: read-out: proteasome inhibition IC50 ± s.d., hβ5
T1 construct: endogenous in cells; host or cells: Jurkat cell lysate (crude)
T1 sequence (P28074 60-263): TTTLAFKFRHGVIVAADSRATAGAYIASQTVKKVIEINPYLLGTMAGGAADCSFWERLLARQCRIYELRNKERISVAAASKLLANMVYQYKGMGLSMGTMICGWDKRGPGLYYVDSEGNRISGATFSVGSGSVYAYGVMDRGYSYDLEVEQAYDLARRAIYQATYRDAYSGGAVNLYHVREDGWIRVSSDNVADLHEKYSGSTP
Experimental: Based on our previously reported procedure, the degree of peptide cleavage in a crude Jurkat cell lysate was measured to determine proteasome activity. The fluorescent substrate Suc-LLVY-AMC (Enzo Life Sciences) was used to determine chymotrypsin-like (β5) activity of the proteasomes.

[2] = system: Jurkat cells; test: Cytotoxicity toward Jurkat cells; assay type: cell-based; settings: Homo sapiens, read-out: cytotoxicity IC50 ± s.d., Jurkat
Experimental: (§1) Next, analogues 8a–l were evaluated for their cytotoxicities toward Jurkat cells, a human T-cell leukemia model, as well as the breast cancer cell lines MCF-7 and MDA-MB-231, and the multiple myeloma cell line RPMI 8226.

[3] = system: RPMI 8226 cells; test: Cytotoxicity toward RPMI 8226 cells; assay type: cell-based; settings: Homo sapiens, read-out: cytotoxicity IC50 ± s.d., RPMI 8226
Experimental: as §1

[4] = system: MCF-7 cells; test: Cytotoxicity toward MCF-7 cells; assay type: cell-based; settings: Homo sapiens, MCF7; read-out: cytotoxicity IC50 ± s.d., MCF-7
Experimental: as §1

[5] = system: MDA-MB-231 cells; test: Cytotoxicity toward MDA-MB-231 cells; assay type: cell-based; settings: Homo sapiens, read-out: cytotoxicity IC50 ± s.d., MDA-MB-231
Experimental: as §1

[6] = system: MCF-10A cells; test: Cytotoxicity toward MCF-10A cells (normal breast tissue model); assay type: cell-based; settings: Homo sapiens, model for normal breast tissue
[7] = Experimentally determined LogP; assay type: physicochemical
[8] = Half-life in buffer; assay type: physicochemical
Text: (§2) Isosteric replacement of the phenyl ring at Pz by either a pyridyl or pyrazyl group was well tolerated, allowing the inclusion of one (compounds 8b–d and 8g–i) or two nitrogen atoms (compounds 8e and 8j).

[9] = Biological stability in serum; assay type: in vitro ADME
Text: as §2

[10] = cited from earlier work
[11] = system: RPMI 8226 cells; parameters: method as in PMID 30165344; settings: earlier work; read-out: cytotoxicity IC50, RPMI 8226; cited from earlier work
[12] = system: MCF-7 cells; parameters: method as in PMID 30165344; settings: earlier work; read-out: cytotoxicity IC50, MCF-7; cited from earlier work
[13] = system: MDA-MB-231 cells; parameters: method as in PMID 30165344; settings: earlier work; read-out: cytotoxicity IC50, MDA-MB-231; cited from earlier work

Row | IC50 [1] [nM] | logP [7] | half-life [8] [min] | biological stability in serum [9] | Structure (SMILES) | IC50 [2] [nM] | IC50 [3] [nM] | IC50 [4] [nM] | IC50 [5] [nM] | IC50 [6] [nM] | peripheral neuropathy, share of patients [10] | IC50 [11] [nM] | IC50 [12] [nM] | IC50 [13] [nM]
1 | 2.3 ± 0.9 | – | – | – | CC[C@H](C)[C@@H]1C(=O)O[C@H]1C(=O)N[C@H](C(=O)N[C@@H](COCc1ccccc1)C(=O)NCc1ccccc1)C(C)C [8a] | 12 ± 2 | 64 ± 4 | 2290 ± 195 | 1940 ± 166 | – | – | – | – | –
2 | 4.1 ± 1.9 | – | – | – | CC[C@H](C)[C@@H]1C(=O)O[C@H]1C(=O)N[C@H](C(=O)N[C@@H](COCc1ccccc1)C(=O)NCc1ccccn1)C(C)C [8b] | 58 ± 14 | 139 ± 6 | 453 ± 24 | 156 ± 3 | – | – | – | – | –
3 | 3.9 ± 1.8 | – | – | – | CC[C@H](C)[C@@H]1C(=O)O[C@H]1C(=O)N[C@H](C(=O)N[C@@H](COCc1ccccc1)C(=O)NCc1cccnc1)C(C)C [8c] | 71 ± 19 | 85 ± 3 | 5630 ± 550 | 242 ± 6 | – | – | – | – | –
4 | 3 ± 1.2 | – | – | – | CC[C@H](C)[C@@H]1C(=O)O[C@H]1C(=O)N[C@H](C(=O)N[C@@H](COCc1ccccc1)C(=O)NCc1ccncc1)C(C)C [8d] | 64 ± 10 | 37 ± 1 | 5300 ± 598 | 328 ± 12 | – | – | – | – | –
5 | 8.4 ± 3.4 | – | – | – | CC[C@H](C)[C@@H]1C(=O)O[C@H]1C(=O)N[C@H](C(=O)N[C@@H](COCc1ccccc1)C(=O)NCc1cnccn1)C(C)C [8e] | 132 ± 4 | 31 ± 2 | 5180 ± 602 | 255 ± 6 | – | – | – | – | –
6 | 4.5 ± 1.5 | – | – | – | CC[C@H](C)[C@@H]1C(=O)O[C@H]1C(=O)N[C@H](C(=O)N[C@@H](COCc1ccccc1)C(=O)NCc1cc(OC)cc(OC)c1)C(C)C [8f] | 63 ± 2 | 26 ± 1 | 322 ± 39 | 53 ± 2 | – | – | – | – | –
7 | 7.1 ± 1.6 | 1.65 | > 10 | greater than 5 min | CC[C@H](C)[C@@H]1C(=O)O[C@H]1C(=O)N[C@H](C(=O)N[C@@H](COCc1ccccc1)C(=O)OCc1ccccn1)C(C)C [8g] | 35 ± 10 | 21 ± 3 | 1020 ± 42 | 39 ± 2 | 123 | – | – | – | –
8 | 3.3 ± 1.8 | – | – | – | CC[C@H](C)[C@@H]1C(=O)O[C@H]1C(=O)N[C@H](C(=O)N[C@@H](COCc1ccccc1)C(=O)OCc1cccnc1)C(C)C [8h] | 61 ± 16 | 43 ± 2 | 3800 ± 293 | 132 ± 3 | – | – | – | – | –
9 | 4 ± 1.1 | – | – | – | CC[C@H](C)[C@@H]1C(=O)O[C@H]1C(=O)N[C@H](C(=O)N[C@@H](COCc1ccccc1)C(=O)OCc1ccncc1)C(C)C [8i] | 36 ± 10 | 35 ± 3 | 4930 ± 403 | 108 ± 7 | – | – | – | – | –
10 | 13.7 ± 1.6 | – | – | – | CC[C@H](C)[C@@H]1C(=O)O[C@H]1C(=O)N[C@H](C(=O)N[C@@H](COCc1ccccc1)C(=O)OCc1cnccn1)C(C)C [8j] | 166 ± 9 | 48 ± 2 | 4530 ± 290 | 146 ± 3 | – | – | – | – | –
11 | 18.2 ± 54 | – | – | – | CC[C@H](C)[C@@H]1C(=O)O[C@H]1C(=O)N[C@H](C(=O)N[C@@H](COCc1ccccc1)C(=O)OCc1ccc(Cl)cc1)C(C)C [8k] | 182 ± 15 | 182 ± 4 | 3500 ± 279 | 222 ± 15 | – | – | – | – | –
12 | 18.8 ± 5 | – | – | – | CC[C@H](C)[C@@H]1C(=O)O[C@H]1C(=O)N[C@H](C(=O)N[C@@H](COCc1ccccc1)C(=O)OCc1ccc(OC)cc1)C(C)C [8l] | 2260 ± 158 | 112 ± 2 | 1670 ± 267 | 636 ± 47 | – | – | – | – | –
13 | – | – | – | – | CC(C)C[C@H](NC(=O)[C@H](Cc1ccccc1)NC(=O)c1cnccn1)B(O)O [bortezomib] | – | – | – | – | – | more than 30% | – | – | –
14 | – | – | – | – | CC(C)C[C@H](NC(=O)[C@H](CCc1ccccc1)NC(=O)CN1CCOCC1)C(=O)N[C@@H](Cc1ccccc1)C(=O)N[C@@H](CC(C)C)C(=O)[C@@]1(C)CO1 [carfilzomib, reference compound] | 3.7 ± 0.3 | 3.7 ± 0.3 | 5.9 ± 0.7 | 4.4 ± 0.1 | 79 | – | – | – | –
15 | – | – | – | – | CC[C@H](C)[C@@H]1C(=O)O[C@H]1C(=O)N[C@H](C(=O)N[C@@H](COCc1ccccc1)C(=O)OCc1ccccc1)C(C)C [compound 1] | 62 ± 7 | 45 ± 0.5 | 2380 ± 261 | 620 ± 50 | – | – | 41 | 416 | 74
